Activity calls are given as the source filed them. The rule behind the calls is not given here.
Test system: M. tuberculosis BioA-TetON underexpression strain, growth inhibition
Experiment: antitubercular activity, BioA-TetON-5 strain, plate reader, dry powder (AID 743072)
Conditions: for IC90: measured here: 90% growth inhibition

| SMILES | IC50 | IC90 |
| --- | --- | --- |
| CC(=O)c1ccc(N2CCN(C(=O)c3ccccc3)CC2)cc1 | > 50 µM (inactive) | > 50 µM |
| COc1cccc(NC(=O)CCC2CCN(C(=O)c3ccc(C(C)=O)s3)CC2)c1 | 4.4 µM | > 50 µM |
| O=C(c1ccc2c(c1)OCO2)N1CCN(c2ccc(F)cc2)CC1 | 10.6 µM | > 50 µM |
| O=C(Nc1cccnc1)c1cnn2c(C(F)F)cc(C3CC3)nc12 | 3.3 µM | > 50 µM |
| CC(=O)c1ccc(N2CCN(C(=O)c3ccc(C)cc3)CC2)cc1 | 31.4 µM | > 50 µM |
| Cc1ccc(/C=C(\CCC(=O)O)c2nc3ccccc3s2)cc1 | 1 µM | 2.8 µM |
| CCOC(=O)N1CCN(C(=O)Nc2ccc3snnc3c2)CC1 | 3.8 µM | 29.6 µM |
| O=C(Nc1ccc2[nH]ccc2c1)N1CCN(c2ccccc2)CC1 | 11.7 µM | > 50 µM |
| O=C(O)CC/C(=C\c1ccc([N+](=O)[O-])cc1)c1nc2ccccc2s1 | 1.3 µM | 7.9 µM |
| O=C(Nc1cccnc1)N1CCN(c2ccccc2)CC1 | > 50 µM (inactive) | > 50 µM |
| CC(=O)c1ccc(N2CCN(C(=O)c3ccc(Cl)cc3)CC2)cc1 | 27.9 µM | > 50 µM |
| Cc1cccc(/C=C(\CCC(=O)O)c2nc3ccccc3s2)c1 | 1.8 µM | 9 µM |
| CCc1ccc(N2CCN(C(=O)c3ccc4c(c3)OCO4)CC2)cc1 | 6.3 µM | > 50 µM |
| O=C(Nc1ccc(F)cc1)N1CCN(c2ccccc2)CC1 | 5.1 µM | > 50 µM |
| O=C(Nc1ccc2snnc2c1)N1CCCCC1 | 22 µM | > 50 µM |
| CCN(CC)c1ccc2cc(C(=O)c3cccs3)c(=O)oc2c1 | 1.1 µM | 5.6 µM |
| COc1ccc(NC(=O)N2CCN(c3ccccc3)CC2)cc1 | 48 µM | > 50 µM |
| CC(=O)c1ccc(N2CCN(Cc3ccc4c(c3)OCO4)CC2)cc1 | 25.2 µM | > 50 µM |
| Cc1nc2ccc(NC(=O)N3CCN(c4ccccc4)CC3)cc2s1 | 1.3 µM | 3.8 µM |
| O=C(Nc1ccc2snnc2c1)N1CCN(c2ccccc2)CC1 | 0.9 µM | 8.3 µM |

| SMILES | IC50 | IC90 |
| --- | --- | --- |
| Cc1ccc(/C=C(\CCCC(=O)O)c2nc3ccccc3s2)cc1[N+](=O)[O-] | 6.1 µM | 46.2 µM |
| O=C(Nc1ccc2snnc2c1)N1CCOCC1 | > 50 µM (inactive) | > 50 µM |
| O=C(c1ccc2c(c1)OCO2)N1CCN(c2ccccc2)CC1 | 20.9 µM | > 50 µM |
| O=C(Nc1ccccc1)N1CCN(c2ccccc2)CC1 | 3.2 µM | 48.2 µM |
| O=C(COc1ccc2ccc(=O)oc2c1)N1CCN(c2ccc(F)cc2)CC1 | 10.2 µM | 42.7 µM |
| CC(=O)c1ccc(N2CCN(C(=O)c3cccnc3)CC2)cc1 | > 50 µM (inactive) | > 50 µM |
| COC(=O)c1c(C(=O)OC)c(-c2cccc(F)c2)n2c1CS(=O)C2 (stereo not given) | 1.7 µM | 34.9 µM |
| COc1cccc(NC(=O)N2CCN(c3ccccc3)CC2)c1 | 36.4 µM | > 50 µM |
| O=C(c1ccc2c(c1)OCO2)N1CCN(c2ccc(Cl)cc2)CC1 | 11.3 µM | 44.5 µM |
| COc1ccc(N2CCN(C(=O)c3ccc4c(c3)OCO4)CC2)cc1 | 17.6 µM | > 50 µM |
| O=C(Nc1ccncc1)c1cc2nc(C3CC3)cc(C(F)F)n2n1 | 50 µM | > 50 µM |
| O=C(Nc1cccc(F)c1)N1CCN(c2ccccc2)CC1 | 4.6 µM | 32.9 µM |
| CC(C)(C)c1ccc(C(=O)N2CCN(c3ccc4c(c3)OCO4)CC2)cc1 | 10.7 µM | 29.5 µM |
| CC(=O)c1ccc(N2CCN(C(=O)c3ccc(Br)cc3)CC2)c(F)c1 | 4.9 µM | > 50 µM |
| COc1cccc(C(=O)N2CCN(c3ccc(C(C)=O)cc3)CC2)c1 | 41.5 µM | > 50 µM |
| Cc1ccc(/C=C(\CC(=O)O)c2nc3ccccc3s2)cc1[N+](=O)[O-] | 2.9 µM | 17.2 µM |
| Cc1ccccc1/C=C(\CCC(=O)O)c1nc2ccccc2s1 | 4.7 µM | 25.3 µM |
| COc1ccc(-c2cc(C(F)(F)F)n3nc(C(=O)Nc4cccnc4)cc3n2)cc1 | 0.3 µM | 0.9 µM |
| CC(=O)c1ccc(N2CCN(C(=O)c3ccc(F)cc3)CC2)cc1 | 44.7 µM | > 50 µM |
| CC(=O)c1ccc(N2CCN(C(=O)c3cccc(Cl)c3)CC2)cc1 | 2.2 µM | 16.5 µM |

| SMILES | IC50 | IC90 |
| --- | --- | --- |
| CC(=O)c1ccc(N2CCN(C(=O)c3ccc4c(c3)OCO4)CC2)cc1 | 1.3 µM | 9.3 µM |
| Cc1nc2cc(NC(=O)N3CCN(c4ccccc4)CC3)ccc2o1 | 36 µM | > 50 µM |
| O=C(Nc1cccnc1)c1cc2nc(-c3cccs3)cc(C(F)(F)F)n2n1 | > 50 µM (inactive) | > 50 µM |
| O=C(c1ccc2c(c1)OCO2)N1CCN(Cc2ccccc2)CC1 | > 50 µM (inactive) | > 50 µM |
| Cc1ccc(/C=C(\CCC(=O)O)c2nc3ccccc3s2)cc1[N+](=O)[O-] | 0.3 µM | 0.7 µM |
| O=C(Nc1cccc(Cl)c1)N1CCN(c2ccccc2)CC1 | 4.9 µM | > 50 µM |
| COc1cc(/C=C/C(=O)Nc2cccnc2)cc(OC)c1OC | 1.3 µM | 15.3 µM |
| O=C(Nc1ccc(Cl)c(-c2nc3ccccc3[nH]2)c1)c1cccnc1 | 1.9 µM | 14.5 µM |
| Cc1ccc(NC(=O)N2CCN(c3ccccc3)CC2)cc1 | 10.6 µM | > 50 µM |
| COc1ccc(C(=O)N2CCN(c3ccc(C(C)=O)cc3)CC2)cc1 | 38.5 µM | > 50 µM |
| CC(=O)c1ccc(N2CCN(C(=O)c3cccc(F)c3)CC2)cc1 | > 50 µM (inactive) | > 50 µM |
| Cc1cc(C)n2nc(C(=O)Nc3cccnc3)cc2n1 | 4.2 µM | > 50 µM |
| O=C(Nc1ccc(Cl)cc1)c1cc2nc(C3CC3)cc(C(F)(F)F)n2n1 | 50 µM | > 50 µM |
| O=C(Nc1cccnc1)c1cnn2c(C(F)(F)F)cc(-c3ccccc3)nc12 | > 50 µM (inactive) | > 50 µM |
| Cc1ccc(-c2cc(C(F)(F)F)n3nc(C(=O)Nc4cccnc4)cc3n2)cc1 | > 50 µM (inactive) | > 50 µM |
| CC(=O)c1ccc(N2CCN(C(=O)c3ccc4c(c3)OCCO4)CC2)cc1 | > 50 µM (inactive) | > 50 µM |
| CCc1ccc(C(=O)N2CCN(Cc3ccc4c(c3)OCO4)CC2)cc1 | 5.2 µM | > 50 µM |
| Cc1cc(C)n2nc(C(=O)Nc3cccnc3)nc2n1 | 50 µM | > 50 µM |
| CC(=O)c1ccc(N2CCN(C(=O)c3ccc4ncsc4c3)CC2)cc1 | 12.9 µM | > 50 µM |
| O=C(O)CC/C(=C\c1ccccc1[N+](=O)[O-])c1nc2ccccc2s1 | 50 µM | > 50 µM |

— PubChem BioAssay AID743072 (Broad Institute, 2013)
